According to patent publication US9289417B2, “Compounds and methods for the modulation of sulfilimine bond formation” (VANDERBILT UNIVERSITY, priority 2009, dated 2016):
“Also recorded” adds a separate entry of the source.

Key:
[1] = tested on: type IV collagen NC1 domain sulfilimine crosslink formation; experiment: Type IV collagen NC1 domain sulfilimine crosslink (dimer) formation in matrix of cultured PF HR9 cells, western blot; type: cell-based, mouse; conditions: for effect on NC1 domain sulfilimine crosslink (dimer) formation, in words: increasing concentrations, PF HR9 cell culture matrix, western blot; for inhibition of NC1 dimer (D) formation: PF HR9 mouse endodermal cell matrix, anti-α2 chain western blot
Procedure: FIG. 9. Methimazole and Phloroglucinol inhibit type IV collagen NC1 domain sulfilimine crosslink formation. NC1 domains were prepared from collagenase digests of extracellular matrix derived from cultured PF HR9 mouse endodermal cells and detected by western blotting with an anti-α2 chain monoclonal antibody.
Standard drug discovery strategies may identify other agents that specifically target the sulfilimine cross-link system with minimal inhibition of other peroxidase systems. In addition, a monoclonal antibody can be generated to inhibit enzyme activity. These agents represent anti-angiogenic oncologic agents that can be translated to clinical medicine with broad application.

human peroxidasin (PXDN) = molecular target: T1, human peroxidasin (PXDN) (Homo sapiens, UniProt Q92626); experiment: NC1 domain dimerization by HEK293 cells stably transfected with human peroxidasin plated on monomeric PFHR9 matrix; type: cell-based; conditions: concentration not given
T1 construct: expressed in transfected cells; host or cells: HEK293 (stably transfected)
T1 sequence (Q92626 27-1479): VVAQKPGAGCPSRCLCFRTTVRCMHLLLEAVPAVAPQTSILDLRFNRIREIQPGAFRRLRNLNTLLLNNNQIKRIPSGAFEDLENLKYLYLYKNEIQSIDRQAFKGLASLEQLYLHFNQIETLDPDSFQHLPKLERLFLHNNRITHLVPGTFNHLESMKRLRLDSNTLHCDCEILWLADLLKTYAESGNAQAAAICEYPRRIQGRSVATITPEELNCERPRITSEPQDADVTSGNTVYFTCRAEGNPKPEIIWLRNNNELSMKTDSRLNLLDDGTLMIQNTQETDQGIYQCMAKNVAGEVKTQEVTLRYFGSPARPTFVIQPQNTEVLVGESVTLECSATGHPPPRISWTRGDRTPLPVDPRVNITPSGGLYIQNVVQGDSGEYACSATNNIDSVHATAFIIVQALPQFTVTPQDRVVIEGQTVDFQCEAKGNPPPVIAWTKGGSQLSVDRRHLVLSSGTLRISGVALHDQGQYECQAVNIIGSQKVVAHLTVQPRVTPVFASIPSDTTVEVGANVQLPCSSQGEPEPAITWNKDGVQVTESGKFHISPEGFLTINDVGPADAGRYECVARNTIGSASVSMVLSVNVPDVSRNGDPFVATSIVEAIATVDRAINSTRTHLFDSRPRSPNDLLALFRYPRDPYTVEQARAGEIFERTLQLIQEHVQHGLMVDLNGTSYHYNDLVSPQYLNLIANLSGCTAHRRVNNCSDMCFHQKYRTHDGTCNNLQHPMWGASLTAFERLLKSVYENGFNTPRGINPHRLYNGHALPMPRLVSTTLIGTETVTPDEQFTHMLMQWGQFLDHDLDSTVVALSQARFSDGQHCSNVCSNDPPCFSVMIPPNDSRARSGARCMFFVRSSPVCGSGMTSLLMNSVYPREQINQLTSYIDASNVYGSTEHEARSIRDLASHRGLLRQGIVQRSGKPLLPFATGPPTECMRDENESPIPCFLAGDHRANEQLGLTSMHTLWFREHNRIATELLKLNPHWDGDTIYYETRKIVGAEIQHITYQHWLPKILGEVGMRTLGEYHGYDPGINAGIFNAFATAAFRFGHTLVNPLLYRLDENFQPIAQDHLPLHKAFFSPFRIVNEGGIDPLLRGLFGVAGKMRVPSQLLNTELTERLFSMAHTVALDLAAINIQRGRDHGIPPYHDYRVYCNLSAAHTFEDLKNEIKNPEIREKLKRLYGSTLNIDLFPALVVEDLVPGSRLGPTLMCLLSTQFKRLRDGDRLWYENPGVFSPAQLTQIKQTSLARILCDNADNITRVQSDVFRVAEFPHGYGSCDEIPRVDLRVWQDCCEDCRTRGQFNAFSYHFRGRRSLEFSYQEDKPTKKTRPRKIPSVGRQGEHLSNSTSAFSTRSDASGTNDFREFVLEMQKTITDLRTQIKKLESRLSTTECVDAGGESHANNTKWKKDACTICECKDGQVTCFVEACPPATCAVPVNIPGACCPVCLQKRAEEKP
Text: FIG. 11. PXDN mediates NC1 domain dimerization. HEK293 stably transfected with human peroxidasin (PXDN) plated on top of monomeric PFHR9 matrix leads to NC1 domain dimerization (middle lanes). […] Placental basement membrane (PBM) NC1 domain is shown for comparison.
Based on these findings, they pursued peroxidasin, a known matrix peroxidase, as a possible candidate for collagen IV dimer and presumably sulfilimine bond formation. […] Peroxidasin was also identified as an endogenous component of the extracellular matrix produced by the HR-9 cells with the use of mass spectrometry.

SMILES | effect on NC1 domain sulfilimine crosslink (dimer) formation, in words [1] | effect on NC1 domain sulfilimine crosslink (dimer) formation, in words ([1]; listed as methimazole) | inhibition of NC1 dimer (D) formation ([1]; Phloroglucinol at 5 uM) | inhibition of NC1 dimer (D) formation ([1]; Phloroglucinol at 50 uM) | effect on NC1 domain sulfilimine crosslink (dimer) formation, in words ([1]; listed as phloroglucinol) | NC1 domain dimerization by PXDN transfected HEK293 cells in the presence of inhibitor (human peroxidasin (PXDN))
Cn1cc[nH]c1=S [Methimazole, methimazole] | decreases crosslinked NC1 dimer (D) while increasing non-crosslinked monomer (M) | inhibit cross-link formation |  |  |  | 
Oc1cc(O)cc(O)c1 [Phloroglucinol, phloroglucinol] | inhibits dimer (D) formation more potently |  | near complete inhibition | complete inhibition | inhibit cross-link formation | No dimer formation was observed; also recorded: fail to lead to dimerization
